The structures appear in SMILES notation. Like-named read-outs stand apart in the source and are kept apart here.

For data set [1] the following is noted: doses of approximately 1200 mg/day; cited from earlier work.
For data set [2] the following is noted: rat; DHA TG supplementation; cited from earlier work.
A short description of data set [3]: Clinical study in healthy subjects: body weight, BMI, blood pressure, pulse. Conditions: 6 weeks. The class given is in vivo, human. The method, then: The goal of this study was to test the safety and efficacy of an EPA-enriched oil (as described in Examples 1-3; E.I. duPont de Nemours & Co., Inc. Applied Biosciences, Wilmington, Del.), to corroborate the safety of a novel oil rich in EPA in humans prior to this product being placed on the market as a dietary supplement. This oil was tested at doses of 600 mg and 1800 mg of EPA/day as compared […] parallel arm design in approximately 120 healthy adults studied in both the fasting and post-prandial state. Safety was monitored by assessing for adverse reactions, measuring vital signs and a variety of laboratory tests including a complete metabolic profile, thyroid function tests, complete blood count, and prothrombin time.
The objective was to carry out a double blinded, randomized, placebo-controlled trial in 120 healthy subjects between 20-70 years of age over a 6 week period comparing the effects of an EPA-enriched oil provided at daily […] Specific parameters investigated included changes in body weight, heart rate, blood pressure, complete blood count, comprehensive metabolic profile, lipid and lipoprotein measures in the fasted and fed state, fatty acid profiles, and inflammation markers.
At all visits the following information was recorded: weight in pounds and kilograms, height in centimeters [“cm”] and inches, waist circumference in cm and inches, resting heart rate, systolic blood pressure, diastolic blood pressure, and a brief dietary assessment to assure continued lack of high fish intake and/or flax seed or fish oil dietary supplements. Blood pressure and pulse measurements were done 3 times on each visit after the subjects had been sitting quietly for 5 minutes.
At the time of the enrollment visit all subjects were randomly allocated into a protocol where they were required to take two capsules three times daily which contained a either: 1) olive oil placebo; 2) 600 mg/day of EPA/day; 3) 1800 mg of EPA/day; and, […]). The EPA oils are notable for their low levels of saturated fatty acids, particularly with regard to the DHA oil. Specifically, the composition of the DHA oil was as follows (g fatty acid per 100 g of oil): 14.1 g myristic acid (14:0), 10.8 g palmitic acid (16:0), 2 g palmitoleic acid (16.1), 7.4 g margaric acid (17:0), 8.4 g oleic acid (18:1), 0.1 g EPA (20:5n3), 0.9 g DPA (22:5n6) and 37.9 g DHA (22:6n3).
At visit 2, subjects were again asked to fast for 12 hours, and information about subject characteristics including all vital signs, recent illness or hospitalization, medication and supplement use, and diet information was again obtained. […] At one week and three weeks after beginning the supplements, all study subjects were contacted by telephone and asked about any adverse effects and about their compliance, and the information on their calendars with regard to capsule use and fish intake. They were also asked about whether they had experienced any fishy aftertaste or odor, and if so, how frequent were these episodes, and how unpleasant were they? The entire process as listed above was repeated after study subjects were on the study capsules for 6 weeks at the time of the final visit. Compliance and adverse events were assessed by telephone at weeks 1 and 3 by telephone and at week 6 by questionnaire and capsule count. Over 42 days, subjects were expected to have consumed a total of 252 capsules. Compliance was calculated as a percentage of consumed capsule count/expected capsule count based on the number of days the subject was in the study. All subjects were asked to stay on their capsules until they come in for their final visit. Compliance in all participants who completed the study was based on capsule count was in excess of 85%, mean 96%.
Statistical analyses compared mean absolute and percentage changes from baseline and 6 weeks in the active groups versus the placebo group. Analysis of variance, as well as paired t-test analysis were performed with SYSTAT software. […]

Details of data set [4]: reduction of events / relative risk reduction in stroke / reduction of risk of subsequent CHD events / relative risk reduction of major cardiovascular events: concentration or dose not given beside the values. Conditions: cited from earlier work.
Where [5] appears, read: EPA 1800 mg/day plus statin group (9,326), 4.6 years of follow-up.

With `CCC=CCC=CCC=CCC=CCC=CC/C=C\CCC(=O)O` [DHA, cis-4,7, 10, 13, 16, 19-docosahexaenoic acid, reference compound], in data set [1], the “lowering of triglyceride levels” value is on record as “about 25%”. Besides, in data set [2], the “plasma and erythrocyte DHA content, DHA TG versus DHA EE” value is “higher”.

For the molecule `CCC=CCC=CCC=CCC=CC/C=C\CCCC(=O)O` [EPA, cis-5,8, 11, 14, 17-eicosapentaenoic acid], in data set [3] (EPA 600 mg (n = 27)), the “BMI, 6-Week Change (%)” value was “+0.2 ± 2.3%”; the “BMI, Final” value was determined as 27.4 ± 3.1 kg/m^2; the “Diastolic BP, Final” value is given as 80.0 ± 7.9 mm; the “Pulse, 6-Week Change (%)” value was “+2.1 ± 13.6%”. For the same molecule, in data set [3] (EPA 600 mg (n = 27)), the “Pulse, Final” value is 74.7 ± 12.0 beats/min; the “Systolic BP, 6-Week Change (%)” value is recorded as “+3.0 ± 10.4%”; the “Systolic BP, Final” value was found to be 121.1 ± 12.2 mm Hg; the “Weight, 6-Week Change (%)” value is recorded as “+0.2 ± 2.1%”. Moreover, the “Weight, Final” value in data set [3] (EPA 600 mg (n = 27)) came out at 80.4 ± 10.9 kg. In data set [3] (EPA 1800 mg (n = 29)), the “BMI, 6-Week Change (%)” value is given as “+1.1 ± 5.1%”; the “BMI, Final” value is on record as 27.9 ± 5. kg/m2; the “Diastolic BP, 6-Week Change (%)” value is reported as “+1.4 ± 9.1%”; the “Diastolic BP, Final” value is on record as 77.4 ± 9.0 mm. For the same molecule, in data set [3] (EPA 1800 mg (n = 29)), the “Pulse, 6-Week Change (%)” value is listed as “+2.7 ± 8.6%”; the “Pulse, Final” value turned out to be 70.9 ± 8.5 beats/min; the “Systolic BP, 6-Week Change (%)” value was “+1.0 ± 7.4%”; the “Systolic BP, Final” value was 119.9 ± 13.4 mm Hg. Besides, in data set [3] (EPA 1800 mg (n = 29)), the “Weight, 6-Week Change (%)” value is reported as “+1.3 ± 4.6%” and the “Weight, Final” value is reported as 81.6 ± 19.2 kg. Besides, the triglyceride lowering result in data set [4] (1800 mg/day of EPA) is listed as “no significant effect”. For the same molecule, the “reduction of risk of subsequent CHD events” value in data set [4] (1,050 subjects with prior myocardial infarction, EPA plus statin, p=0.033) is 27%. Moreover, the “decrease in cardiovascular events” value in data set [4] (>98% purified EPA-ethyl esters plus statin versus statin alone) is 19%. Moreover, in data set [4] (setting [5]), the “major cardiovascular event rate” value is 2.8% and the “major cardiovascular events observed” value is 262 events. In data set [4] (EPA plus statin versus statin-only), the “sudden death rates between the groups” value is on record as “No significant differences”. Further, in data set [4] (EPA plus statin versus statin-only, p=0.011), the “relative risk reduction of major cardiovascular events” value is on record as 19%. For the same molecule, the “effects on lipid levels” value in data set [4] (EPA plus statin) is listed as “not associated with any significant effects”. In data set [4] (entire cohort, EPA plus statin), the reduction in stroke result is “not associated with a significant reduction” and the stroke rate was 1.3%. The risk reduction in data set [4] (impaired glucose tolerance (fasting glucose >110 mg/dl), EPA plus statin, p=0.048) is given as 22%. Besides, the risk reduction in data set [4] (normal glucose group, EPA plus statin, not significant) is given as 18%. Besides, the reduction of events in data set [4] (patients with a history of prior CHD, EPA plus statin versus statin-only, p=0.048) was 19%. Moreover, the event rate in data set [4] (patients with a history of prior CHD, EPA plus statin) is recorded as 8.7%. Further, the “number needed to treat” value in data set [4] (patients with a history of prior CHD) is listed as 49. Further, the “rate of subsequent CHD events” value in data set [4] (subjects with prior myocardial infarction, EPA plus statin) was 15.0%. Moreover, the “number needed to treat to prevent one event” value in data set [4] (subjects with prior myocardial infarction) was 19. The stroke rate in data set [4] (subjects with prior stroke, EPA plus statin) is reported as 6.8%. Further, the “relative risk reduction in stroke” value in data set [4] (subjects with prior stroke, EPA plus statin, p<0.05) is 20%. Also, the event rate in data set [4] (subjects without CHD, EPA plus statin) was 1.4%. The risk reduction in data set [4] (subjects without CHD, p 0.132 (not significant)) was 18%. Moreover, in data set [4] (triglyceride >150 mg/dl and HDL cholesterol <40 mg/dl, EPA plus statin, p=0.043), the “reduction of CHD events” value is 53%.
